The values below are quoted from earlier work in PMC7904743, “WIDOCK: a reactive docking protocol for virtual screening of covalent inhibitors” (Journal of Computer-Aided Molecular Design, 2021).

Where two headings read alike, the source gives them in different places.

The conditions of data set [1]: thiol reactivity, cited from earlier work.
Another data set concerns NUDT7. The settings on record: protein labeling at 200 μM; experimental actives if % labeling higher than 50%; cited from earlier work.
The subject of the next data set is OTUB2. The settings on record: experimental actives if % labeling higher than 50%, cited from earlier work.
Where [2] appears, read: natural log of average rate constant k.
Setting [3] is: natural logarithm of average rate constant.
[4] abbreviates: natural log of average kinetic rate constant.
The mark [5] stands for this setting: natural log of average rate constant.

Turning to `CS(=O)(=O)c1cccc(NC(=O)CCl)c1` [PCM-0102407, CS(=O)(=O)c1cccc(NC(=O)CCl)c1], the “ln(avg k)” value in data set [1] (setting [2]) and in data set [1] (setting [3]) was -15.426 each time. Further, in the data set with NUDT7, the NUDT7 % labeling is given as 0%. In the data set on OTUB2, the OTUB2 % labeling is 33%.

Turning to `Cc1nc(C2(NC(=O)CCl)CCCCCC2)no1` [PCM-0102944, Cc1nc(C2(NC(=O)CCl)CCCCCC2)no1], the “ln(avg k)” value in data set [1] (setting [4]) and in data set [1] (setting [5]) was -17.037 each time. In the data set on NUDT7, the NUDT7 % labeling is recorded as 0%. The OTUB2 % labeling with OTUB2 (OTUB2 protein labeling) is given as 0%.

Turning to `O=C(CCl)Nc1cc([N+](=O)[O-])ccc1Cl` [PCM-0102366, O=C(CCl)Nc1cc([N+](=O)[O-])ccc1Cl], the “ln(avg k)” value in data set [1] (setting [2]) and in data set [1] (setting [3]) was -15.888 each time. For the same molecule, in the data set on NUDT7, the NUDT7 % labeling is listed as 20%. The OTUB2 % labeling with OTUB2 is given as 27%.

For the molecule `O=C(CCl)N1CCCCCCC1` [PCM-0102377, O=C(CCl)N1CCCCCCC1], the “ln(avg k)” value in data set [1] (setting [2]) and in data set [1] (setting [3]) was -15.780 throughout. For the same molecule, in the data set on NUDT7, the NUDT7 % labeling is listed as 0%. The OTUB2 % labeling in the data set on OTUB2 is 0%.

Regarding `CC(C)(C)OC(=O)CNC(=O)CCl` [PCM-0102981, CC(C)(C)OC(=O)CNC(=O)CCl], the “ln(avg k)” value in data set [1] (setting [4]) and in data set [1] (setting [5]) was -17.661 each time. The NUDT7 % labeling in the data set with NUDT7 is reported as 0%. Further, in the data set on OTUB2 (OTUB2 protein labeling), the OTUB2 % labeling is given as 0%.

On to `CC1CCCCC1N(C)C(=O)CCl` (centres unmarked) [PCM-0103026, CC1CCCCC1N(C)C(=O)CCl], for which the “ln(avg k)” value in data set [1] (setting [4]) and in data set [1] (setting [5]) was -15.777 throughout. Further, in the data set with NUDT7, the NUDT7 % labeling is recorded as 12%. In addition, the OTUB2 % labeling in the data set with OTUB2 (OTUB2 protein labeling) is reported as 0%.

As to `CC(=O)Nc1cccc(NC(=O)CCl)c1` [PCM-0102172, CC(=O)Nc1cccc(NC(=O)CCl)c1], the “ln(avg k)” value in data set [1] (setting [2]) and in data set [1] (setting [3]) was -15.748 each time. Besides, the NUDT7 % labeling in the data set with NUDT7 is given as 0%. For the same molecule, the OTUB2 % labeling with OTUB2 is given as 0%.

`N#CC(c1ccc(F)cc1)N1CCN(C(=O)CCl)CC1` (centres unmarked) [PCM-0102341, N#CC(c1ccc(F)cc1)N1CCN(C(=O)CCl)CC1]: the “ln(avg k)” value in data set [1] (setting [2]) and in data set [1] (setting [3]) was -14.949 each time. In addition, in the data set on NUDT7, the NUDT7 % labeling is 0%. Also, the OTUB2 % labeling with OTUB2 was 0%.

Turning to `O=C(CCl)Nc1ccc(Cl)nc1` [PCM-0102891, O=C(CCl)Nc1ccc(Cl)nc1], the “ln(avg k)” value in data set [1] (setting [4]) and in data set [1] (setting [5]) was -15.610 throughout. For the same molecule, the NUDT7 % labeling in the data set on NUDT7 was 25%. Moreover, the OTUB2 % labeling with OTUB2 (OTUB2 protein labeling) was 0%.

In the case of `O=C(CCl)N1CCN(S(=O)(=O)c2c(F)cccc2F)CC1` [PCM-0102201, O=C(CCl)N1CCN(S(=O)(=O)c2c(F)cccc2F)CC1], the “ln(avg k)” value in data set [1] (setting [2]) and in data set [1] (setting [3]) was -15.250 throughout. Also, the NUDT7 % labeling with NUDT7 is 0%. The OTUB2 % labeling in the data set on OTUB2 is on record as 0%.

As to `O=C(CCl)Nc1ccc2c(c1)OC(F)(F)O2` [PCM-0102738, O=C(CCl)Nc1ccc2c(c1)OC(F)(F)O2], the “ln(avg k)” value in data set [1] (setting [4]) and in data set [1] (setting [5]) was -15.810 each time. In addition, the NUDT7 % labeling in the data set with NUDT7 is 0%. Besides, the OTUB2 % labeling in the data set with OTUB2 (OTUB2 protein labeling) was 41%.

`O=C(CCl)Nc1cc(F)cc(F)c1` [PCM-0102874, O=C(CCl)Nc1cc(F)cc(F)c1]: the “ln(avg k)” value in data set [1] (setting [4]) and in data set [1] (setting [5]) was -15.799 throughout. The NUDT7 % labeling in the data set on NUDT7 was 18%. In addition, in the data set on OTUB2 (OTUB2 protein labeling), the OTUB2 % labeling is 0%.

For the molecule `N#Cc1c(NC(=O)CCl)sc2c1CCC2` [PCM-0102452, N#Cc1c(NC(=O)CCl)sc2c1CCC2], the “ln(avg k)” value in data set [1] (setting [2]) and in data set [1] (setting [3]) was -16.077 in each case. In the data set with NUDT7, the NUDT7 % labeling is recorded as 0%. Besides, the OTUB2 % labeling in the data set on OTUB2 is reported as 7%.

Take `Cc1cc(CNC(=O)CCl)ccc1F` [PCM-0102305, Cc1cc(CNC(=O)CCl)ccc1F]: the “ln(avg k)” value in data set [1] (setting [2]) and in data set [1] (setting [3]) was -16.230 each time. The NUDT7 % labeling in the data set with NUDT7 is 0%. The OTUB2 % labeling with OTUB2 is 59%.

Regarding `O=C(CCl)N1CCN(Cc2ccc3c(c2)CCO3)CC1` [PCM-0102814, O=C(CCl)N1CCN(Cc2ccc3c(c2)CCO3)CC1], the “ln(avg k)” value in data set [1] (setting [4]) and in data set [1] (setting [5]) was -15.537 each time. The NUDT7 % labeling in the data set with NUDT7 is 0%. In addition, the OTUB2 % labeling in the data set with OTUB2 (OTUB2 protein labeling) is recorded as 0%.

Consider `O=C(CCl)Nc1ccc(F)c(Cl)c1` [PCM-0102217, O=C(CCl)Nc1ccc(F)c(Cl)c1], for which the “ln(avg k)” value in data set [1] (setting [2]) and in data set [1] (setting [3]) was -15.473 in each case. Besides, the NUDT7 % labeling in the data set on NUDT7 is listed as 0%. For the same molecule, the OTUB2 % labeling with OTUB2 was 14%.

With `O=C(CCl)Nc1ccc(F)cc1` [PCM-0103002, O=C(CCl)Nc1ccc(F)cc1], the “ln(avg k)” value in data set [1] (setting [4]) and in data set [1] (setting [5]) was -16.182 throughout. Besides, the NUDT7 % labeling with NUDT7 is on record as 0%. The OTUB2 % labeling in the data set with OTUB2 (OTUB2 protein labeling) is recorded as 30%.

As for `CCOC(=O)C1CCCCN1C(=O)CCl` (centres unmarked) [PCM-0102937, CCOC(=O)C1CCCCN1C(=O)CCl], the “ln(avg k)” value in data set [1] (setting [4]) and in data set [1] (setting [5]) was -16.030 each time. Besides, in the data set with NUDT7, the NUDT7 % labeling is given as 0%. Moreover, the OTUB2 % labeling with OTUB2 (OTUB2 protein labeling) was 13%.

For `O=C(CCl)NC(=O)OCc1ccccc1` [PCM-0102153, O=C(CCl)NC(=O)OCc1ccccc1], the “ln(avg k)” value in data set [1] (setting [2]) and in data set [1] (setting [3]) was -16.245 throughout. Further, the NUDT7 % labeling in the data set on NUDT7 is listed as 0%. Further, the OTUB2 % labeling in the data set on OTUB2 is 79%.

As to `O=C(Nc1ccccc1)C1CCN(C(=O)CCl)CC1` [PCM-0102219, O=C(Nc1ccccc1)C1CCN(C(=O)CCl)CC1], the “ln(avg k)” value in data set [1] (setting [2]) and in data set [1] (setting [3]) was -15.089 in each case. Besides, the NUDT7 % labeling with NUDT7 is on record as 0%. The OTUB2 % labeling with OTUB2 is reported as 0%.

Turning to `Cc1csc(NC(=O)CCl)n1` [PCM-0102872, Cc1csc(NC(=O)CCl)n1], the “ln(avg k)” value in data set [1] (setting [4]) and in data set [1] (setting [5]) was -15.785 each time. In addition, the NUDT7 % labeling in the data set with NUDT7 is reported as 16%. The OTUB2 % labeling with OTUB2 (OTUB2 protein labeling) is given as 0%.

With `CC(NC(=O)CCl)c1ccc2ccccc2c1` (centres unmarked) [PCM-0102350, CC(NC(=O)CCl)c1ccc2ccccc2c1], the “ln(avg k)” value in data set [1] (setting [2]) and in data set [1] (setting [3]) was -16.423 each time. The NUDT7 % labeling in the data set on NUDT7 is recorded as 31%. Also, the OTUB2 % labeling in the data set with OTUB2 is on record as 47%.

Turning to `N#Cc1ccc(Cl)cc1NC(=O)CCl` [PCM-0102700, N#Cc1ccc(Cl)cc1NC(=O)CCl], the “ln(avg k)” value in data set [1] (setting [2]) and in data set [1] (setting [3]) was -16.148 throughout. Moreover, the NUDT7 % labeling in the data set with NUDT7 is given as 40%. Further, the OTUB2 % labeling in the data set with OTUB2 was 17%.

Regarding `COc1ccc(Cl)cc1NC(=O)CCl` [PCM-0102370, COc1ccc(Cl)cc1NC(=O)CCl], the “ln(avg k)” value in data set [1] (setting [2]) and in data set [1] (setting [3]) was -15.854 each time. For the same molecule, the NUDT7 % labeling in the data set with NUDT7 is given as 23%. Moreover, the OTUB2 % labeling in the data set with OTUB2 was 18%.

As for `CNC(=O)C1CN(C(=O)CCl)c2ccccc2O1` (centres unmarked) [PCM-0102221, CNC(=O)C1CN(C(=O)CCl)c2ccccc2O1], the “ln(avg k)” value in data set [1] (setting [2]) and in data set [1] (setting [3]) was -15.966 in each case. Moreover, in the data set with NUDT7, the NUDT7 % labeling is given as 0%. The OTUB2 % labeling in the data set on OTUB2 is recorded as 15%.

For `Cc1c(C#N)c(NC(=O)CCl)n(-c2ccccc2)c1C` [PCM-0102261, Cc1c(C#N)c(NC(=O)CCl)n(-c2ccccc2)c1C], the “ln(avg k)” value in data set [1] (setting [2]) and in data set [1] (setting [3]) was -16.038 in each case. The NUDT7 % labeling in the data set with NUDT7 was 30%. In the data set with OTUB2, the OTUB2 % labeling is recorded as 9%.
